In US20220332699A1 (SAGE THERAPEUTICS, INC., priority 2019, published 2022):
pIC50: −log10 of the molar value.

Molecular target: CYP46A1 (Homo sapiens, UniProt Q9Y6A2)
Assay: CYP46A1 Enzyme Assay 2 (testosterone substrate, HPLC-MS)
Assay type: biochemical
Conditions: not given
Procedure: Briefly, in a 384-well plate format, 10 μL per well of an enzyme-substrate mixture of CYP46A1 (5 μM final concentration) and Testosterone ([…] final concentration) were dispensed to wells containing test compound. For CYP46A1 titration, 5 μL per well of serially diluted CYP46A1 (concentrations including 10 μM, 5 μM, and 2.5 μM) and Testosterone (concentration of […]) were dispensed. For Testosterone titration, 5 μL per well of serially diluted Testosterone (concentrations including 10 μM, 5 μM, and 2.5 μM) and CYP46A1 (concentration of 5 μM) were dispensed. The plates were centrifuged at 1000 rpm for 30 seconds, and then sealed and incubated at 37° C. for 30 minutes. The plate was removed from the incubator, and then 10 μL per well of NADPH-generating system were dispensed to initiate the reaction. The plates were incubated at 37° C. for 15 minutes, added with 80 μL per well of 100% methanol consisting 1 ng/ml diclofenac as internal standard, and then transferred for HPLC-MS.

Chain of CYP46A1 (Q9Y6A2 whole entry): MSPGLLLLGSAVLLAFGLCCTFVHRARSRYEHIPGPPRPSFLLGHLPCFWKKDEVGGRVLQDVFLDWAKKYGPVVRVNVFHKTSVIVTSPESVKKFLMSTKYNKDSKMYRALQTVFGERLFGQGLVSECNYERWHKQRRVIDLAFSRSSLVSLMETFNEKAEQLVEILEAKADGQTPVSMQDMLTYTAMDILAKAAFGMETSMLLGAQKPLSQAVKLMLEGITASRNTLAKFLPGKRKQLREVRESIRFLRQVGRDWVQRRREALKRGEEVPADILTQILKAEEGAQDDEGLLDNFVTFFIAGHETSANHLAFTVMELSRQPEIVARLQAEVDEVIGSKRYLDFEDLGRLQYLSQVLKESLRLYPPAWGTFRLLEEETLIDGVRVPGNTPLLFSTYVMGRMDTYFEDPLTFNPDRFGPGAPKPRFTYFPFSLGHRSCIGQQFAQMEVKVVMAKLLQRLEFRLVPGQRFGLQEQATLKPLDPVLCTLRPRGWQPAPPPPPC

Compound	pIC50
N#CC1(c2ccccc2)CCN(C(=O)c2cccnc2-c2ccncn2)CC1 [Compound A256, 4-phenyl-1-(2-(pyrimidin-4-yl)nicotinoyl)piperidine-4-carbonitrile]	< 6.00

Same assay, conditions: read-out: IC50 (CYP46A1 inhibitory activity)

Compound	pIC50
Cc1ncc(CC2(C#N)CCN(C(=O)c3cccnc3-c3ccncn3)CC2)cn1 [Compound A203, 4-((2-methylpyrimidin-5-yl)methyl)-1-(2-(pyrimidin-4-yl)nicotinoyl)piperidine-4-carbonitrile]	< 6.00
N#CC1(Cc2ccc(F)cc2)CCN(C(=O)c2cccnc2-n2cncn2)CC1 [Compound A74, 1-(2-(1H-1,2,4-triazol-1-yl)nicotinoyl)-4-(4-fluorobenzyl)piperidine-4-carbonitrile]	< 6.00
N#CC1(Cc2ccc(C(F)(F)F)nc2)CCN(C(=O)c2cccnc2-c2ccncn2)CC1 [Compound A222, 1-(2-(pyrimidin-4-yl)nicotinoyl)-4-((6-(trifluoromethyl)pyridin-3-yl)methyl)piperidine-4-carbonitrile]	6.00 to 7.00
N#C[C@]1(Cc2ccc(F)cc2)CCN(C(=O)c2cccnc2-c2ccncn2)C1 [Compound A235, (R)-3-(4-fluorobenzyl)-1-(2-(pyrimidin-4-yl)nicotinoyl)pyrrolidine-3-carbonitrile]	< 6.00
C[C@H](c1c(F)cccc1F)C1(C#N)CCN(C(=O)c2cccnc2-c2ccncn2)CC1 [Compound A243, (S)-4-(1-(2,6-difluorophenyl)ethyl)-1-(2-(pyrimidin-4-yl)nicotinoyl)piperidine-4-carbonitrile]	> 7.00
N#CC1(Cc2cccc(C3CC3)c2)CCN(C(=O)c2cccnc2-c2ccncn2)CC1 [Compound A218, 4-(3-cyclopropylbenzyl)-1-(2-(pyrimidin-4-yl)nicotinoyl)piperidine-4-carbonitrile]	> 7.00
N#CC1(Cc2ccc(Cl)cc2Br)CCN(C(=O)c2cccnc2-c2ccncn2)CC1 [Compound A232, 4-(2-bromo-4-chlorobenzyl)-1-(2-(pyrimidin-4-yl)nicotinoyl)piperidine-4-carbonitrile]	> 7.00
C[C@H](c1ccc(C(F)(F)F)cc1)C1(C#N)CCN(C(=O)c2cccnc2-c2ccncn2)CC1 [Compound A251, (R)-1-(2-(pyrimidin-4-yl)nicotinoyl)-4-(1-(4-(trifluoromethyl)phenyl)ethyl)piperidine-4-carbonitrile]	> 7.00
N#CC1(Cc2ccc(C3CC3)cn2)CCN(C(=O)c2cccnc2-c2ccncn2)CC1 [Compound A226, 4-((5-cyclopropylpyridin-2-yl)methyl)-1-(2-(pyrimidin-4-yl)nicotinoyl)piperidine-4-carbonitrile]	6.00 to 7.00
N#CC1(Cc2ccc(F)cc2)CCN(C(=O)c2ccc(F)cc2-c2ccncn2)CC1 [Compound A220, 1-(4-fluoro-2-(pyrimidin-4-yl)benzoyl)-4-(4-fluorobenzyl)piperidine-4-carbonitrile]	> 7.00
N#CC1(Cc2c(F)cccc2F)CCN(C(=O)c2cccnc2-c2ccncn2)CC1 [Compound A207, 4-(2,6-difluorobenzyl)-1-(2-(pyrimidin-4-yl)nicotinoyl)piperidine-4-carbonitrile]	> 7.00
COc1ccc(CC2(C#N)CCN(C(=O)c3cccnc3-c3ccncn3)CC2)cc1 [Compound A63, 4-(4-methoxybenzyl)-1-(2-(pyrimidin-4-yl)nicotinoyl)piperidine-4-carbonitrile]	> 7.00
N#CC1(Cc2ccc(C(F)(F)F)cc2F)CCN(C(=O)c2cccnc2-c2ccncn2)CC1 [Compound A240, 4-(2-fluoro-4-(trifluoromethyl)benzyl)-1-(2-(pyrimidin-4-yl)nicotinoyl)piperidine-4-carbonitrile]	> 7.00
N#CC1(Cc2ccc(F)cc2)CCN(C(=O)c2cccnc2-c2cccnc2)CC1 [Compound A18, 1-([2,3′-bipyridine]-3-carbonyl)-4-(4-fluorobenzyl)piperidine-4-carbonitrile]	< 6.00
N#CC1(Cc2ccc(F)c(C(F)(F)F)c2)CCN(C(=O)c2cccnc2-c2ccncn2)CC1 [Compound A267, 4-(4-fluoro-3-(trifluoromethyl)benzyl)-1-(2-(pyrimidin-4-yl)nicotinoyl)piperidine-4-carbonitrile]	> 7.00
N#CC1(Cc2cc(F)ccc2F)CCN(C(=O)c2cccnc2-c2ccncc2)CC1 [Compound A282, 1-([2,4′-bipyridine]-3-carbonyl)-4-(2,5-difluorobenzyl)piperidine-4-carbonitrile]	> 7.00
N#CC1(Cc2cc(F)cc(F)c2)CCN(C(=O)c2cccnc2-c2ccncc2)CC1 [Compound A70, 1-([2,4′-bipyridine]-3-carbonyl)-4-(3,5-difluorobenzyl)piperidine-4-carbonitrile]	> 7.00
N#Cc1ccc(CC2(C#N)CCN(C(=O)c3cccnc3-c3ccncc3)CC2)cc1 [Compound A27, 1-([2,4′-bipyridine]-3-carbonyl)-4-(4-cyanobenzyl)piperidine-4-carbonitrile]	> 7.00

Compound	pIC50
N#CC1(CCCCc2ccccc2)CCN(C(=O)c2cccnc2-c2ccncc2)CC1 [Compound A67, 1-([2,4′ bipyridine]-3-carbonyl)-4-(4-phenylbutyl)piperidine-4-carbonitrile]	> 7.00
N#CC1(Cc2ccc(OC(F)(F)F)cc2)CCN(C(=O)c2cccnc2-c2ccncn2)CC1 [Compound A217, 1-(2-(pyrimidin-4-yl)nicotinoyl)-4-(4-(trifluoromethoxy)benzyl)piperidine-4-carbonitrile]	> 7.00
N#CC1(Cc2cc(F)ccc2F)CCN(C(=O)c2cccnc2-c2ccncn2)CC1 [Compound A261, 4-(2,5-difluorobenzyl)-1-(2-(pyrimidin-4-yl)nicotinoyl)piperidine-4-carbonitrile]	> 7.00
N#CC1(Cc2cnc(C(F)(F)F)nc2)CCN(C(=O)c2cccnc2-c2ccncn2)CC1 [Compound A239, 1-(2-(pyrimidin-4-yl)nicotinoyl)-4-((2-(trifluoromethyl)pyrimidin-5-yl)methyl)piperidine-4-carbonitrile]	< 6.00
N#CC1(Cc2ccc(C(F)(F)F)cc2)CCN(C(=O)c2cccnc2-c2ccncn2)CC1 [Compound A40, 1-(2-(pyrimidin-4-yl)nicotinoyl)-4-(4-(trifluoromethyl)benzyl)piperidine-4-carbonitrile]	> 7.00
N#CC1(Cc2cccc(C(F)(F)F)c2)CCN(C(=O)c2cccnc2-c2ccncc2)CC1 [Compound A279, 1-([2,4′-bipyridine]-3-carbonyl)-4-(3-(trifluoromethyl)benzyl)piperidine-4-carbonitrile]	> 7.00
N#CC1(Cc2ccccc2)CCN(C(=O)c2cccnc2-c2ccncn2)CC1 [Compound A31, 4-benzyl-1-(2-(pyrimidin-4-yl)nicotinoyl)piperidine-4-carbonitrile]	> 7.00
C[C@@H](c1ccc(F)cc1F)C1(C#N)CCN(C(=O)c2cccnc2-c2ccncn2)CC1 [Compound A242, (R)-4-(1-(2,4-difluorophenyl)ethyl)-1-(2-(pyrimidin-4-yl)nicotinoyl)piperidine-4-carbonitrile]	> 7.00
C[C@@H](c1ccc(F)cc1)C1(C#N)CCN(C(=O)c2cccnc2-c2ccncn2)CC1 [Compound A44, (S)-4-(1-(4-fluorophenyl)ethyl)-1-(2-(pyrimidin-4-yl)nicotinoyl)piperidine-4-carbonitrile]	> 7.00
N#CC1(Cc2ccc(Cl)cc2)CCN(C(=O)c2cccnc2-c2ccncn2)CC1 [Compound A37, 4-(4-chlorobenzyl)-1-(2-(pyrimidin-4-yl)nicotinoyl)piperidine-4-carbonitrile]	> 7.00
CC(c1c(F)cc(F)cc1F)C1(C#N)CCN(C(=O)c2cccnc2-c2ccncn2)CC1 (stereo in doubt) [Compound A270, (S)-1-(2-(pyrimidin-4-yl)nicotinoyl)-4-(1-(2,4,6-trifluorophenyl)ethyl)piperidine-4-carbonitrile]	> 7.00
N#CC1(Cc2ccc(F)cc2)CCN(C(=O)c2c(F)cccc2-c2ccncn2)CC1 [Compound A221, 1-(2-fluoro-6-(pyrimidin-4-yl)benzoyl)-4-(4-fluorobenzyl)piperidine-4-carbonitrile]	> 7.00
N#CC1(Cc2ccc(-c3ccccc3)cc2)CCN(C(=O)c2cccnc2-c2ccncc2)CC1 [Compound A19, 4-([1,1′-biphenyl]-4-ylmethyl)-1-([2,4′-bipyridine]-3-carbonyl)piperidine-4-carbonitrile]	> 7.00
C[C@@H]1CN(C(=O)c2cccnc2-c2ccncn2)CC[C@@]1(C#N)Cc1ccc(F)cc1 [Compound A247, (3S,4S)-4-(4-fluorobenzyl)-3-methyl-1-(2-(pyrimidin-4-yl)nicotinoyl)piperidine-4-carbonitrile]	> 7.00
CC(c1cc(F)cc(F)c1)C1(C#N)CCN(C(=O)c2cccnc2-c2ccncc2)CC1 (stereo in doubt) [Compound A259, (S)-1-([2,4′-bipyridine]-3-carbonyl)-4-(1-(3,5-difluorophenyl)ethyl)piperidine-4-carbonitrile]	> 7.00
CS(=O)(=O)c1ccc(CC2(C#N)CCN(C(=O)c3cccnc3-c3ccncn3)CC2)cc1 [Compound A204, 4-(4-(methylsulfonyl)benzyl)-1-(2-(pyrimidin-4-yl)nicotinoyl)piperidine-4-carbonitrile]	6.00 to 7.00
C[C@H](c1c(F)cccc1F)C1(C#N)CCN(C(=O)c2cccnc2-c2ccncc2)CC1 [Compound A245, (S)-1-([2,4′-bipyridine]-3-carbonyl)-4-(1-(2,6-difluorophenyl)ethyl)piperidine-4-carbonitrile]	> 7.00
